From US5965539A, “Inhibitors of prenyl transferases” (Univeristy of Pittsburgh, priority 1996, dated 1999)
Read-outs that look alike come from different tables or passages of the source.

Tests used:
Format in all cases: biochemical
[1] = biological target: T1, GGTase I (Homo sapiens, UniProt P53609); assay: GGTase I activity assay: transfer of [3H]geranylgeranyl to recombinant H-Ras-CVLL, Daudi 60,000xg supernatant
T1 construct: FTase and GGTase I activities from 60,000×g supernatants of human Burkitt lymphoma (Daudi) cells; endogenous in cells; host or cells: human Burkitt lymphoma (Daudi) cells, 60,000xg supernatant (partially purified)
Procedure: FTase and GGTase I activities from 60,000×g supernatants of human Burkitt lymphoma (Daudi) cells (ATCC, Rockville, Md., USA) were assayed as described previously for FTase (41). Briefly, 100 μg of the supernatant was incubated in 50 mM Tris, pH 7.5, 50 μM ZnCl2, 20 mM KCl and 1 mM dithiothreitol (DTT). The reaction was incubated at […] for 30 min with recombinant Ha-Ras-CVLS (11 μM) and [^3 H]FPP (625 nM; 16.3 Ci/mmol) for FTase, and recombinant Ha-Ras-CVLL (5 μM) and [^3 H]geranylgeranylpyrophosphate (525 nM; 19.0 Ci/mmol) for GGTase I. The peptidomimetics were mixed with FTase and GGTase before adding to the reaction mixture.
(§1) Human Burkitt lymphoma (Daudi) cells (ATCC, Rockville, Md.) were grown in suspension in RPMI 1640 medium containing 10% fetal bovine serum (FBS) and 1% Pen-Strep in a humidified 10% CO2 incubator at 37° C. The cells were harvested and sonicated in 50 mM Tris, pH 7.5, 1 mM EDTA, 1 mM EGTA, 25 μg/ml leupeptin, 1 mM phenylmethylsulfonyl fluoride. Homogenates were then spun at 12,000×g and the resulting supernatant further spun at 60,000×g. The supernatant was assayed for both FTase and GGTase I. Briefly, 100 μg of the supernatants was incubated in 50 mM Tris, pH 7.5, 50 μM ZnCl2, 20 mM KCl, 3 mM MgCl2 and 1 mM DTT. For FTase assays, the reaction was incubated at 37° C. for 30 minutes with recombinant H-Ras-CVLS (11 μM) and [^3 H] FPP (625 nM; 16.3 Ci/mmol). For GGTase assays, the reaction was also incubated for 30 minutes at 37° C. but with recombinant H-Ras-CVLL (5 μM) and [^3 H] GGPP (525 nM; 19.0 Ci/mmol). The reaction was stopped and passed through glass fiber filters to separate free and incorporated label. For inhibition studies, the peptidomimetics were premixed with FTase or GGTase I prior to adding the remainder of the reaction mixture. Recombinant H-Ras-CVLS was prepared as described previously (26) from bacteria (31). Recombinant H-Ras-CVLL was prepared from bacteria (32).
FTase and GGTase I activities from 60,000×g supernatants of human Burkitt lymphoma (Daudi) cells (ATCC, Rockville, Md.) were assayed exactly as described previously for FTase (41). Inhibition studies were performed by determining the ability of Ras CAAX peptidomimetics to inhibit the transfer of [^3 H]-farnesyl and [^3 H]-geranylgeranyl from [^3 H]FPP and [^3 H]GGPP to H-ras-CVLS and H-Ras-CVLL, respectively (41).

[2] = biological target: T2, FTase (Homo sapiens, UniProt P49356); assay: FTase activity assay: transfer of [3H]farnesyl from FPP to recombinant H-Ras-CVLS, Daudi 60,000xg supernatant; conditions: for Selectivity: FTase over GGTase I; for GG/F: ratio GGTase I IC50 / FTase IC50
T2 construct: FTase and GGTase I activities from 60,000×g supernatants of human Burkitt lymphoma (Daudi) cells; endogenous in cells; host or cells: human Burkitt lymphoma (Daudi) cells, 60,000xg supernatant (partially purified)
Procedure: FTase and GGTase I activities from 60,000×g supernatants of human Burkitt lymphoma (Daudi) cells (ATCC, Rockville, Md., USA) were assayed as described previously for FTase (41). Briefly, 100 μg of the supernatant was incubated in 50 mM Tris, pH 7.5, 50 μM ZnCl2, 20 mM KCl and 1 mM dithiothreitol (DTT).
as §1, with “For FTase assays, the reaction was incubated at 37° C. for 30 minutes with recombinant H-Ras-CVLS (11 μM) and [^3 H]” left out, “Recombinant H-Ras-CVLS was prepared as described previously (26) from bacteria (31).” left out
FTase and GGTase I activities from 60,000×g supernatants of human Burkitt lymphoma (Daudi) cells (ATCC, Rockville, Md.) were assayed exactly as described previously for FTase (41).

[3] = biological target: T2, FTase; assay: Peptidomimetics farnesylation assay (silica gel TLC); conditions: Table 4; substrate for farnesylation, TLC
Procedure: The ability of human Burkitt lymphoma (Daudi) FTase to farnesylate peptides and peptidomimetics was determined as described previously (34, 35). Briefly, 25 μl of reaction mixture containing 50 μg of 60,000×g supernatants and 20 μM peptidomimetic in 50 mM Tris, pH 7.5, 50 μM ZnCl2, 20 mM KCl, 3 mM MgCl2, 1 mM DTT and 0.2% octylβ-D-glucoside was incubated for 30 minutes at 37° C., then spotted onto silica gel G TLC sheets (20×20 cm, Brinkmann Instruments), and developed with n-propanol/5 N ammonium hydroxide/water (6:1:1). The dried sheets were sprayed with En^3 Hance (DuPont NEN) and exposed to x-ray film for detection of [^3 H] farnesylated products.

[4] = Table 4, read-out: GGTase-I IC50
[5] = Table 1, read-out: GGTase I IC50

T1 sequence (P53609 whole entry): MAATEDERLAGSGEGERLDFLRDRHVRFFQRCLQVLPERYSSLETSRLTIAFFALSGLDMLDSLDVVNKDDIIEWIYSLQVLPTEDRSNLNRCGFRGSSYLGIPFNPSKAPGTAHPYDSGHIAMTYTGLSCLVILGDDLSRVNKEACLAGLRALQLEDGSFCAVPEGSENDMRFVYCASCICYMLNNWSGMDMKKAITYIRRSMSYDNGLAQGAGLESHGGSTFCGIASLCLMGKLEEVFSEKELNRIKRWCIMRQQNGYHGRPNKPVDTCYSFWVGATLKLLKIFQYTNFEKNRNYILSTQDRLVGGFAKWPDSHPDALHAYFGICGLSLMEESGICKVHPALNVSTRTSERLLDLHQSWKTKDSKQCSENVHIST
T2 sequence (P49356 whole entry): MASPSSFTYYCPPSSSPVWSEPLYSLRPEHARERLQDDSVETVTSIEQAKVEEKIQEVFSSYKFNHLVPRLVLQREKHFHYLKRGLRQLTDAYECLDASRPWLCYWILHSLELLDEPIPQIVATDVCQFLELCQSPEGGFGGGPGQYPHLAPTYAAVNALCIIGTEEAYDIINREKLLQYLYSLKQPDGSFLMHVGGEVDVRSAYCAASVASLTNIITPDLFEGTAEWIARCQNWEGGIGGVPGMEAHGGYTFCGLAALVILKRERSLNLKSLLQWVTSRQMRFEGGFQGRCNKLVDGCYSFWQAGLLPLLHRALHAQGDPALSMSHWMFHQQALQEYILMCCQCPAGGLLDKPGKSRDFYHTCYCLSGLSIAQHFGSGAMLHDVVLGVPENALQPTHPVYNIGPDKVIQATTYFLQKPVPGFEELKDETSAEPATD

Molecule | IC50 [1, 4] [µM] | Selectivity ([2]; Table 4) | IC50 ([2]; Table 4, read-out: FTase IC50) [µM] | further results
N[C@@H](CS)C(=O)Nc1ccc(-c2cccc(C(=O)O)c2)cc1 [FTI-278, Cysteinyl-4-amino-3'-carboxybiphenyl] | 100 | 7 | 13.5 | –
HCl-cysteine-4-aminobenzoyl methionine [FTI-232] | 1.5 | 10 | 0.15 | IC50 [1, 5]: 1.2 µM; selectivity for FTase over GGTase I [2]: 10 fold; GG/F ([2]; Table 1): 6; IC50 ([2]; Table 1, read-out: FTase IC50): 0.213 µM
N[C@@H](CS)C(=O)NCc1cccc(-c2cccc(C(=O)O)c2)c1 [FTI-238, Cys-3-aminomethyl-3'-carboxybiphenyl] | > 100 | > 1 | 100 | Substrate [3]: no
COc1cc(NC[C@@H](N)CS)ccc1-c1cccc(C(=O)O)c1 [FTI-281, 2-Methoxy-4-N-[2(R)-amino-3-mercaptopropyl]amino-3'-carboxybiphenyl] | 43.6 | 1090 | 0.04 | –
NCC(N)CNc1ccc(-c2cccc(C(=O)O)c2)cc1 (stereo not drawn) [FTI-282, (DL) 4-(2,3-diaminopropyl)-amino-3' carboxybiphenyl] | – | > 2 | 50 | –
NCC(N)C(=O)Nc1ccc(-c2cccc(C(=O)O)c2)cc1 (stereo not drawn) [FTI-291, 4-(3-Aminoalanyl)-amino-3'-carboxybiphenyl] | – | – | 210 | –
CSCC[C@H](NC(=O)c1ccc(NC(=O)[C@@H](N)CS)cc1-c1ccccc1)C(=O)O.O=C(O)C(F)(F)F [FTI-272, TFA.Cysteine-4-amino-2-phenylbenzoyl methionine] | – | – | – | IC50 [1, 5]: 0.267 µM; GG/F ([2]; Table 1): 53; IC50 ([2]; Table 1, read-out: FTase IC50): 0.005 µM
COC(=O)C(CCSC)NC(=O)c1ccc(NC(=O)C(N)CS)cc1-c1ccccc1.Cl (stereo not drawn) [FTI-274, HCl.cysteine-4-amino-2-phenylbenzoyl methionine methyl ester] | – | – | – | IC50 [1, 5]: 30 µM; GG/F ([2]; Table 1): 15; IC50 ([2]; Table 1, read-out: FTase IC50): 2.05 µM
COc1cc(C(=O)NC(CCSC)C(=O)O)ccc1NC(=O)C(N)CS.O=C(O)C(F)(F)F (stereo not drawn) [FTI-261, TFA.Cysteine-4-amino-3-methoxybenzoyl methionine] | – | – | – | IC50 [1, 5]: 50 µM; GG/F ([2]; Table 1): 20; IC50 ([2]; Table 1, read-out: FTase IC50): 2.55 µM
CCS(=O)(=O)NCC(N)C(=O)Nc1ccc(-c2cccc(C(=O)O)c2)cc1 (stereo not drawn) [FTI-295, 4-(Ethylsulfonyl-3-aminoalanyl)-amino-3'-carboxy-biphenyl] | > 1000 | > 5 | 200 | –
CC(C)C[C@H](NC(=O)c1ccc(NC[C@@H](N)CS)cc1-c1ccccc1)C(=O)O [GGTI-287, 4-[2(R)-amino-3-mercaptopropyl]amino-2-phenylbenzoyl-(S)-leucine] | – | – | – | selectivity for GGTase I over FTase [1]: 5 fold; IC50 ([1]; Table 5, read-out: In Vitro IC50 GGTase I): 0.005 µM; IC50 ([1]; read-out: GGTase I IC50): 0.005 µM; IC50 ([2]; Table 5, read-out: In Vitro IC50 FTase): 0.025 µM
NC[C@H](N)CNc1ccc(-c2cccc(C(=O)O)c2)cc1 [FTI-292, (L)4(2,3-diaminopropyl)-amino-3'-carboxybiphenyl] | – | – | 60 | –
N[C@@H](CS)CNCc1cccc(-c2cccc(C(=O)O)c2)c1 [FTI-283, red.Cys-3-aminomethyl-3'-carboxybiphenyl] | 35 | 3 | 11 | –
TFA.cysteine-4-amino-1-naphthoyl methionine [FTI-270] | – | – | – | IC50 [1, 5]: 3.15 µM; GG/F ([2]; Table 1): 22; IC50 ([2]; Table 1, read-out: FTase IC50): 0.143 µM
TFA.cysteine-4-amino-3-methylbenzoyl methionine [FTI-260] | – | – | – | IC50 [1, 5]: 9 µM; GG/F ([2]; Table 1): 11; IC50 ([2]; Table 1, read-out: FTase IC50): 0.825 µM
N[C@@H](CS)CNc1ccc(-c2cccc(-c3nnn[nH]3)c2)cc1 [FTI-2102, red.Cys-4-amino-3'-tetrazolylbiphenyl] | 5 | 187 | 0.03 | –
N[C@@H](CS)CNc1ccc(-c2cccc(C(=O)O)c2)c(-c2ccccc2)c1 [FTI-289, red.Cys-4-amino-2-phenyl-3'-carboxybiphenyl] | 0.643 | 40 | 0.016 | –
4-(Vinylsulfonyl-3-aminoalanyl)-amino-3'-carboxybiphenyl [FTI-296] | > 1000 | > 2 | 430 | –
COC(=O)c1cccc(-c2ccc(NC[C@@H](N)CS)cc2)c1 [FTI-259, 4-N-[2(R)-Amino-3-mercaptopropyl]amino-3'-methoxycarbonylbiphenyl] | > 100 | 109 | 0.917 | Substrate [3]: no
CSCC[C@H](NC(=O)c1ccc(NC(=O)[C@@H](N)CS)cc1-c1cc(C)cc(C)c1)C(=O)O.O=C(O)C(F)(F)F [FTI-275, TFA.Cysteine-4-amino-2-(3,5-dimethylphenyl)benzoyl methionine] | – | – | – | IC50 [1, 5]: 0.4 µM; GG/F ([2]; Table 1): 1; IC50 ([2]; Table 1, read-out: FTase IC50): 0.405 µM
N[C@@H](CS)CNc1ccc(-c2ccccc2)cc1 [FTI-268, 4-N-[2(R)Amino-3-Mercaptopropyl]aminobiphenyl] | > 100 | 93 | 1.07 | Substrate [3]: no
CCCOc1cc(NC[C@@H](N)CS)ccc1-c1cccc(C(=O)O)c1 [FTI-288, red.Cys-4-amino-2-OPr-3'-carboxybiphenyl] | 2.38 | 59 | 0.041 | –
Cc1cccc(-c2ccc(NC[C@@H](N)CS)cc2-c2ccccc2)c1 [FTI-285, red.Cys-4-amino-2-phenyl-3'-methylbiphenyl] | 8.5 | 4 | 2.08 | –
N[C@@H](CS)CNc1ccc(-c2ccccc2C(=O)O)cc1 [FTI-273, 4-N-[2(R)-Amino-3-mercaptopropyl]amino-2'-carboxybiphenyl] | 140 | 258 | 0.543 | –
